Measured values from US20170183644A1, “DRUG COCKTAIL ANALYSES USING MICROSCALE VORTEX ASSISTED ELECTROPORATION” (President and Fellows of Harvard College, priority 2014, published 2017).

How the values were obtained:
MDA-MB-231 cells [1] = assay: Microfluidic vortex-assisted electroporation drug screening assay, CellTiter-Glo cell viability; assay type: cell-based; details: for IC50: microfluidic electroporation, single agent, read-out: Proposed IC50; for effect on cell viability as a single agent: microfluidic assay
Protocol: These cells were incubated in a humidified incubator at 37° C. with […] environment. Cells were harvested for experiments 2 days after the seeding by treating them with 0.25% trypsin-EDTA for 2 minutes. The cells were pelleted by centrifuging for 5 minutes at 200×g and resuspended in the growth media to have a final concentration of 5×10^5 cells/mL. The system utilized the pneumatic flow control unit and the electrical equipment that we previously developed. Their detailed specifications and visualized operational protocols (Yun et al., 2013; Vickers et al., 2014) can be found elsewhere. In brief, the flow control unit independently and promptly pressurizes individual solution vials for rapid solution exchanges through the microfluidic system while the electrical equipment generates high-voltage short pulses across the electroporation chambers on demand. […] Solution vials, individually containing cells, drugs and a growth media for flushing, were mounted into the pneumatic flow control unit, and PEEK tubes from each vial inserted into designated inlet ports in the microfluidic electroporator. The system was flushed with the growth media at the operating pressure of 40 psi (equivalent to a flow rate of 400 μL/minute) for 90 seconds prior to the target cell injection step in order to prime the flow speed required for cell trapping (Hur et al., 2011). Once the desired size and number distribution of trapped cells were attained in each cell trapping vortex, not-trapped cells were removed from the device by switching the active solution port from the cell solution to the flush solution. […] The magnitude, V, the width, Kt, and the frequency of applied electrical pulses were monitored in real-time using an oscilloscope (Agilent, USA). Drug delivery doses were varied by exposing trapped cells to a single drug for incubation durations of 30, 60 and 120 seconds in continuous flow. For dual drug delivery tests, trapped cells were sequentially incubated in individual drugs with various dosage combinations by systematically changing treatment duration ratios of two drugs (e.g., 30:30 seconds, 30:60 seconds or 30:120 seconds). Upon completion of the drug delivery process, treated cells were suspended in the growth media and released from the device for downstream analysis by lowering the operating pressure to 30 psi. Collected cells were seeded in 96 well plates and cultured for 24 to 48 hours prior to the cytotoxicity assays. […] Conventional drug screening assays utilizing well-plates were conducted in parallel to evaluate the performance of the proposed microfluidic system. […] For control experiments using the conventional method, the concentrations of drugs were determined such that cells would be exposed in a well plate for 24 hours to the drug amount that is identical to those used for the microfluidic counterpart. […] The CellTiter-Glo Luminescent Cell Viability Assay (Promega, USA) was used to determine the cytotoxicity of tested drugs. First, the correlation between the luminescent intensity and the number of viable cells for the tested cell line was established from luminescence measurements from 96 well plates containing known-quantity of viable cells (LuMate, Model 4400) (see ESI FIG. 2 for calibration curve). For cytotoxicity studies on cells treated with the drugs, all cells present in the well, regardless their viability, were manually counted prior to adding the CellTiter-Glo reagent to the well. The number of viable cells was determined by identifying the corresponding number of viable cells represented by the measured luminescent intensity from the calibration curve. Viability was determined by taking the ratio between the number of viable cells and the total number of treated cells presented in the well.

MDA-MB-231 cells [2] = assay: Conventional well-plate drug screening assay, CellTiter-Glo cell viability; assay type: cell-based; details: for effect on cell viability as a single agent: conventional assay
Protocol: These cells were incubated in a humidified incubator at 37° C. with 0% CO2 environment. Cells were harvested for experiments 2 days after the seeding by treating them with 0.25% trypsin-EDTA for 2 minutes. […] Conventional drug screening assays utilizing well-plates were conducted in parallel to evaluate the performance of the proposed microfluidic system. […] For control experiments using the conventional method, the concentrations of drugs were determined such that cells would be exposed in a well plate for 24 hours to the drug amount that is identical to those used for the microfluidic counterpart. […] The CellTiter-Glo Luminescent Cell Viability Assay (Promega, USA) was used to determine the cytotoxicity of tested drugs. First, the correlation between the luminescent intensity and the number of viable cells for the tested cell line was established from luminescence measurements from 96 well plates containing known-quantity of viable cells (LuMate, Model 4400) (see ESI FIG. 2 for calibration curve). For cytotoxicity studies on cells treated with the drugs, all cells present in the well, regardless their viability, were manually counted prior to adding the CellTiter-Glo reagent to the well. The number of viable cells was determined by identifying the corresponding number of viable cells represented by the measured luminescent intensity from the calibration curve. Viability was determined by taking the ratio between the number of viable cells and the total number of treated cells presented in the well.

Ca-27 squamous carcinoma = Ca-27 squamous carcinoma (Wang et al., 2012); read-out: Literature IC50; cited from earlier work
MDA-MB-231 = MDA-MB-231 (Akbos et al., 2005); read-out: Literature IC50; cited from earlier work
[3] = system: MC38 colon cancer cell line; details: MC38 colon cancer cell line (Kuriyoma et al., 2000); read-out: Literature IC50; cited from earlier work
[4] = Homo sapiens, MDA-MB-231, well plate, single agent, read-out: Conventional IC50

Question: Which IC50 (MDA-MB-231 cells [1]; Homo sapiens, MDA-MB-231) does the source give for `Nc1ccn([C@@H]2O[C@H](CO)[C@@H](O)C2(F)F)c(=O)n1` [Gemcitabine, gemcitabine] here?
Answer: Its IC50 is 302 µM.

Question: And the IC50 (MDA-MB-231 cells [2]; Homo sapiens, MDA-MB-231, FIG. 2 legend, value matches conventional assay, read-out: IC50 (FIG. 2 legend))?
Answer: The IC50 was 2000 µM.

Question: What about the IC50 (MDA-MB-231 cells [2]; [4]) of the same compound?
Answer: The IC50 was 2000 µM.

Question: And the IC50 (Ca-27 squamous carcinoma)?
Answer: The IC50 was 340 µM.

Question: With `CC[C@@]1(O)C(=O)OCc2c1cc1n(c2=O)Cc2cc3c(CN(C)C)c(O)ccc3nc2-1` [Topotecan, topotecan] as the compound, how does the IC50 (MDA-MB-231 cells [1]; Homo sapiens, MDA-MB-231) read?
Answer: The IC50 was 1.2 µM.

Question: And the “effect on cell viability as a single agent” value (“effect on cell viability” for short) (MDA-MB-231 cells [1])?
Answer: The value was “dose-dependently reduced survival”.

Question: And the IC50 (MDA-MB-231)?
Answer: Its IC50 is 1.1 µM.

Question: What about the IC50 (MDA-MB-231 cells [2]; Homo sapiens, MDA-MB-231, FIG. 2 legend, values match conventional assay, read-out: IC50 (FIG. 2 legend)) of the same compound?
Answer: The IC50 was 2 µM.

Question: And the IC50 (MDA-MB-231 cells [2]; [4])?
Answer: Its IC50 is 2 µM.

Question: What about the “effect on cell viability” value (MDA-MB-231 cells [2]; single agent) of the same compound?
Answer: Its value is “dose-dependently reduced survival”.

Question: For `O=c1c(O)c(-c2ccc(O)c(O)c2)oc2cc(O)cc(O)c12` [quercetin], which “effect on cell viability” value (MDA-MB-231 cells [1]) is on record?
Answer: The value was “negligible and dose independent”.

Question: What about the “effect on cell viability” value (MDA-MB-231 cells [1]; listed as Quercetin) of the same compound?
Answer: The value was “negligible cytotoxic effect”.

Question: What about the “effect on cell viability” value (MDA-MB-231 cells [2]; single agent) of the same compound?
Answer: The value was “negligible and dose independent”.

Question: And the “effect on cell viability” value (MDA-MB-231 cells [2]; single agent, listed as Quercetin)?
Answer: The value was “negligible cytotoxic effect”.

Question: With bleomycin as the compound, how does the IC50 [3] read?
Answer: The IC50 was 12 µM.

Question: What about the IC50 (MDA-MB-231 cells [1]) of the same compound?
Answer: The IC50 was 0.12 µM.

Question: And the IC50 (MDA-MB-231 cells [2]; FIG. 2 legend, values match conventional assay, read-out: IC50 (FIG. 2 legend))?
Answer: Its IC50 is 30 µM.

Question: And the IC50 (MDA-MB-231 cells [2]; well plate, single agent, read-out: Conventional IC50)?
Answer: The IC50 was 20 µM.
